Data: PubChem BioAssay (NCI)
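The compound was tested at five concentrations on cells cultured in 96-well plates, with a 48-hour exposure period. TGI is the concentration that stops growth completely.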

Experiments:
Assay in all cases: NCI tumour cell line growth inhibition, 48 h
786-0 renal = test system: 786-0 renal
A498 renal = test system: A498 renal
A549 NSCLC = test system: A549 NSCLC
ACHN renal = test system: ACHN renal
BT-549 breast = test system: BT-549 breast
CAKI-1 renal = test system: CAKI-1 renal
COLO 205 colon = test system: COLO 205 colon
DU-145 prostate = test system: DU-145 prostate
EKVX NSCLC = test system: EKVX NSCLC
HCC-2998 colon = test system: HCC-2998 colon
HCT-116 colon = test system: HCT-116 colon
HCT-15 colon = test system: HCT-15 colon
HL-60(TB) leukemia = test system: HL-60(TB) leukemia
HOP-62 NSCLC = test system: HOP-62 NSCLC
HOP-92 NSCLC = test system: HOP-92 NSCLC
HS 578T breast = test system: HS 578T breast
HT29 colon = test system: HT29 colon
IGROV1 ovarian = test system: IGROV1 ovarian
K-562 leukemia = test system: K-562 leukemia
KM12 colon = test system: KM12 colon
LOX IMVI melanoma = test system: LOX IMVI melanoma
M14 melanoma = test system: M14 melanoma
MALME-3M melanoma = test system: MALME-3M melanoma
MCF7 breast = test system: MCF7 breast
MDA-MB-231 breast = test system: MDA-MB-231 breast
MDA-MB-435 = test system: MDA-MB-435
MDA-N = test system: MDA-N
MOLT-4 leukemia = test system: MOLT-4 leukemia
NCI-H226 lung = test system: NCI-H226 lung
NCI-H23 lung = test system: NCI-H23 lung
NCI-H522 lung = test system: NCI-H522 lung
NCI/ADR-RES ovarian = test system: NCI/ADR-RES ovarian
OVCAR-3 ovarian = test system: OVCAR-3 ovarian
OVCAR-4 ovarian = test system: OVCAR-4 ovarian
OVCAR-5 ovarian = test system: OVCAR-5 ovarian
OVCAR-8 ovarian = test system: OVCAR-8 ovarian
PC-3 prostate = test system: PC-3 prostate
RPMI-8226 leukemia = test system: RPMI-8226 leukemia
RXF 393 renal = test system: RXF 393 renal
SF-268 CNS = test system: SF-268 CNS
SF-295 CNS = test system: SF-295 CNS
SK-MEL-2 melanoma = test system: SK-MEL-2 melanoma
SK-MEL-28 melanoma = test system: SK-MEL-28 melanoma
SK-MEL-5 melanoma = test system: SK-MEL-5 melanoma
SK-OV-3 ovarian = test system: SK-OV-3 ovarian
SN12C renal = test system: SN12C renal
SNB-19 CNS = test system: SNB-19 CNS
SR leukemia = test system: SR leukemia
SW-620 colon = test system: SW-620 colon
T-47D breast = test system: T-47D breast
TK-10 renal = test system: TK-10 renal
U251 CNS = test system: U251 CNS
UACC-257 melanoma = test system: UACC-257 melanoma
UACC-62 melanoma = test system: UACC-62 melanoma
UO-31 renal = test system: UO-31 renal
CCRF-CEM leukemia = test system: CCRF-CEM leukemia
NCI-H460 lung = test system: NCI-H460 lung
SF-539 CNS = test system: SF-539 CNS
SNB-75 CNS = test system: SNB-75 CNS

Structure (SMILES): CCC1c2[nH]c3ccccc3c2C[C@H]2C(=O)N3CCC[C@H]3C(=O)N12 (stereo not given in full)
- TGI (786-0 renal): > 100 µM
- TGI (A498 renal): > 100 µM
- TGI (A549 NSCLC): > 100 µM
- TGI (ACHN renal): > 100 µM
- TGI (BT-549 breast): > 100 µM
- TGI (CAKI-1 renal): > 100 µM
- TGI (COLO 205 colon): > 100 µM
- TGI (DU-145 prostate): > 100 µM
- TGI (EKVX NSCLC): > 100 µM
- TGI (HCC-2998 colon): > 100 µM
- TGI (HCT-116 colon): > 100 µM
- TGI (HCT-15 colon): > 100 µM
- TGI (HL-60(TB) leukemia): > 100 µM
- TGI (HOP-62 NSCLC): > 100 µM
- TGI (HOP-92 NSCLC): > 100 µM
- TGI (HS 578T breast): > 100 µM
- TGI (HT29 colon): > 100 µM
- TGI (IGROV1 ovarian): > 100 µM
- TGI (K-562 leukemia): > 100 µM
- TGI (KM12 colon): > 100 µM
- TGI (LOX IMVI melanoma): > 100 µM
- TGI (M14 melanoma): > 100 µM
- TGI (MALME-3M melanoma): > 100 µM
- TGI (MCF7 breast): > 100 µM
- TGI (MDA-MB-231 breast): > 100 µM
- TGI (MDA-MB-435): > 100 µM
- TGI (MDA-N): > 100 µM
- TGI (MOLT-4 leukemia): > 100 µM
- TGI (NCI-H226 lung): > 100 µM
- TGI (NCI-H23 lung): > 100 µM
- TGI (NCI-H522 lung): > 100 µM
- TGI (NCI/ADR-RES ovarian): > 100 µM
- TGI (OVCAR-3 ovarian): > 100 µM
- TGI (OVCAR-4 ovarian): > 100 µM
- TGI (OVCAR-5 ovarian): > 100 µM
- TGI (OVCAR-8 ovarian): > 100 µM
- TGI (PC-3 prostate): > 100 µM
- TGI (RPMI-8226 leukemia): > 100 µM
- TGI (RXF 393 renal): > 100 µM
- TGI (SF-268 CNS): > 100 µM
- TGI (SF-295 CNS): > 100 µM
- TGI (SK-MEL-2 melanoma): > 100 µM
- TGI (SK-MEL-28 melanoma): > 100 µM
- TGI (SK-MEL-5 melanoma): > 100 µM
- TGI (SK-OV-3 ovarian): > 100 µM
- TGI (SN12C renal): > 100 µM
- TGI (SNB-19 CNS): > 100 µM
- TGI (SR leukemia): > 100 µM
- TGI (SW-620 colon): > 100 µM
- TGI (T-47D breast): > 100 µM
- TGI (TK-10 renal): > 100 µM
- TGI (U251 CNS): > 100 µM
- TGI (UACC-257 melanoma): > 100 µM
- TGI (UACC-62 melanoma): > 100 µM
- TGI (UO-31 renal): > 100 µM

Structure (SMILES): O=C1/C(=C/c2ccc(Cl)cc2)N=C(c2ccccc2)N1c1nc2c(Cl)cc(Cl)cc2s1
- TGI (786-0 renal): > 100 µM
- TGI (A498 renal): 50.2 µM
- TGI (A549 NSCLC): 68.7 µM
- TGI (ACHN renal): > 100 µM
- TGI (BT-549 breast): 82.9 µM
- TGI (CAKI-1 renal): > 100 µM
- TGI (CCRF-CEM leukemia): 20.7 µM
- TGI (COLO 205 colon): > 100 µM
- TGI (DU-145 prostate): > 100 µM
- TGI (EKVX NSCLC): 68.9 µM
- TGI (HCC-2998 colon): > 100 µM
- TGI (HCT-116 colon): 50.8 µM
- TGI (HCT-15 colon): > 100 µM
- TGI (HL-60(TB) leukemia): 43.1 µM
- TGI (HOP-62 NSCLC): > 100 µM
- TGI (HOP-92 NSCLC): 71.6 µM
- TGI (HS 578T breast): 90.1 µM
- TGI (HT29 colon): 55.7 µM
- TGI (IGROV1 ovarian): > 100 µM
- TGI (K-562 leukemia): > 100 µM
- TGI (KM12 colon): > 100 µM
- TGI (LOX IMVI melanoma): 53.4 µM
- TGI (M14 melanoma): > 100 µM
- TGI (MCF7 breast): > 100 µM
- TGI (MDA-MB-231 breast): 92.3 µM
- TGI (MDA-MB-435): 86.2 µM
- TGI (MDA-N): 39.2 µM
- TGI (MOLT-4 leukemia): 24.7 µM
- TGI (NCI-H460 lung): > 100 µM
- TGI (NCI/ADR-RES ovarian): 81.3 µM
- TGI (OVCAR-3 ovarian): 50.9 µM
- TGI (OVCAR-4 ovarian): > 100 µM
- TGI (OVCAR-5 ovarian): > 100 µM
- TGI (OVCAR-8 ovarian): > 100 µM
- TGI (PC-3 prostate): 45.9 µM
- TGI (RPMI-8226 leukemia): > 100 µM
- TGI (RXF 393 renal): 62 µM
- TGI (SF-268 CNS): > 100 µM
- TGI (SF-295 CNS): > 100 µM
- TGI (SF-539 CNS): 46.1 µM
- TGI (SK-MEL-2 melanoma): 55.5 µM
- TGI (SK-MEL-28 melanoma): > 100 µM
- TGI (SK-MEL-5 melanoma): 57.9 µM
- TGI (SK-OV-3 ovarian): > 100 µM
- TGI (SN12C renal): 57.8 µM
- TGI (SNB-19 CNS): > 100 µM
- TGI (SNB-75 CNS): 64.9 µM
- TGI (SR leukemia): 42.5 µM
- TGI (SW-620 colon): > 100 µM
- TGI (T-47D breast): 70.2 µM
- TGI (TK-10 renal): > 100 µM
- TGI (U251 CNS): 50.9 µM
- TGI (UACC-257 melanoma): > 100 µM
- TGI (UACC-62 melanoma): > 100 µM
- TGI (UO-31 renal): 79.8 µM
